Measurements as given in patent US11078194B2, “Salt form and crystal form serving as FGFR and VEGFR inhibitor compounds, and preparation method therefor” (HARBIN ZHENBAO PHARMACEUTICAL CO., LTD., priority 2017, dated 2021).
Read-outs that look alike come from different tables or passages of the source.

Experiments:
[1] = Solubility test of compounds of formula (I)-(IV) in 4 vehicles (water, SGF, FaSSIF, FeSSIF), HPLC; format: physicochemical; details: for solubility at 4 h / solubility at 24 h: thermodynamic from solid; for solubility at 4 h: 4 hours stirring, read-out: Solubility (μg/mL)_4 hours; for solubility at 24 h: 24 hours stirring, read-out: Solubility (μg/mL)_24 hours
Procedure: About 5 mg of the compound of formula (I) was weighed accurately, and placed in a sample bottle. 10 mL of acetonitrile was added. The mixture was sonicated for 5 minutes, cooled to room temperature, and well mixed. Two control sample solutions were prepared in parallel, and labeled as STD-1 and STD-2, respectively.
The control sample solution STD-1 was serially diluted 1, 5, 10, 100 and 1000 times and labeled as linear solutions L1, L2, L3, L4 and L5.
The solubility of the compound of formula (I) and its salt in 4 vehicles with different pH were tested. About 10 mg of the compounds of formula (I)-(IV) were weighed respectively, then 5.0 mL of different vehicles (water, SGF, FaSSIF, FeSSIF) were added thereto, respectively, and well mixed to obtain suspensions. Magnetic stir bars were added into the suspensions, and the suspensions were placed on a magnetic stirrer for stirring. After stirring for 2 hours, 4 hours, and 24 hours, the samples were collected and centrifuged. The residual solid samples in the lower layer were detected by XRPD. The concentrations of the samples in the upper layer were determined by HPLC, and the pH value of the samples were also detected.
(§1) FaSSIF: (1) 0.042 g of sodium hydroxide, 0.3438 g of sodium dihydrogen phosphate and 0.6186 g of sodium chloride were weighed, and 90 mL of purified water was added and well mixed. The pH value of the obtained solution were adjusted to 6.5 with 1 N hydrochloric acid or 1 N sodium hydroxide, and the solution were diluted with purified water to a final volume of 100 mL. (2) 50 mL of the above buffer solution was taken, followed by addition of 0.224 g of commercially available FaSSIF/FeSSIF/FaSSGF powder (Biorelevant.com). The buffer solution was stirred until dissolved, and diluted with purified water to a final volume of 100 mL. The buffer solution was placed at room temperature.
as §1, with “FeSSIF:” for “FaSSIF:”, “0.404” for “0.042”, “0.865” for “0.3438”, “glacial acetic acid, 1.1874” for “sodium dihydrogen phosphate and 0.6186”, “5.0” for “6.5”, “1.12” for “0.224”
FaSSGF (SGF): (1) 0.2 g of sodium chloride was added to 90 mL of purified water and mixed well. The pH value thereof was adjusted to 1.8 with 1 N hydrochloric acid and the solution diluted with purified water to a final volume of 100 mL. The obtained solution was allowed to stand at room temperature.

[2] = Solid stability test of crystal form G, crystal form I and crystal form J (HPLC content, total impurities, XRPD, appearance); format: physicochemical
Procedure: About 10 mg of crystal form G, crystal form I, or crystal form J were weighed accurately, and placed on the bottom of a 40 mL glass sample bottle and spread into a thin layer. For an open sample, the bottle mouth thereof was sealed with aluminum foil poked with pinholes to ensure that the sample can fully contact with the ambient air. For a sealed sample, the bottle mouth thereof was sealed with a bottle cap, and wrapped with a sealing film. Two duplicate samples were weighed at each time point of each condition in parallel, and an appropriate amount of sample (not weighed) was taken additionally for XRPD detection. The prepared samples were placed under each condition and were sampled and analyzed when the time point was arrived. On 0th day, 5 control samples were weighed in parallel and stored in a refrigerator at −20° C. until analysis. The samples subjected to light irradiation were prepared by the same method, and placed on the bottom of a 40 mL glass sample bottle. The glass bottle was left open and placed in the upright position in a light irradiation box. In addition, two samples in an appropriate amount were taken as samples in dark, and the glass bottles containing the same were left open, put in the upright position, and wrapped with tin foil, and irradiated with a total luminance of 1.2×10^6Lux.hr and a near ultraviolet power of 200 w.hr/m^2. After irradiation, the samples was stored in the refrigerator at −20° C. for analysis.
The compounds were placed under the following conditions and sampled at different time points to detect the physical properties, and the content and total impurities were analyzed by HPLC.

[3] = FaSSIF, pH 6.5, fassif, vehicle FaSSIF
[4] = FeSSIF, pH 5, fessif, vehicle FeSSIF
[5] = SGF (FaSSGF), pH 1.8, simulated gastric fluid, vehicle SGF
[6] = pH of sample in FaSSIF (vehicle pH 6.62)
[7] = pH of sample in FeSSIF (vehicle pH 4.59)
[8] = pH of sample in H2O (vehicle pH 8.23)
[9] = pH of sample in SGF (vehicle pH 1.57)
[10] = water, pH 8.23, water, vehicle H2O
[11] = Accelerated test (40° C./relative humidity 75%, open), 1st month
[12] = Accelerated test (40° C./relative humidity 75%, open), 2nd month
[13] = Accelerated test (40° C./relative humidity 75%, open), 3rd month
[14] = Accelerated test (40° C./relative humidity 75%, open), 10th day
[15] = Accelerated test (60° C./relative humidity 75%, open), 1st month
[16] = Accelerated test (60° C./relative humidity 75%, open), 2nd month
[17] = Accelerated test (60° C./relative humidity 75%, open), 3rd month
[18] = Accelerated test (60° C./relative humidity 75%, open), 10th day
[19] = High humidity (Room temperature/relative humidity 92.5%, open), 5th day
[20] = High humidity (Room temperature/relative humidity 92.5%, open), 10th day
[21] = High temperature (60° C., open), 5th day
[22] = High temperature (60° C., open), 10th day
[23] = Light irradiation (1.2 × 10^6 Lux·hr, near ultraviolet 200 w·hr/m^2, open), irradiated sample
[24] = Light irradiation test, Dark sample

SMILES: C[C@@H](Oc1ccc2[nH]nc(/C=C(\F)c3ccc(CNC4CCOCC4)nc3)c2c1)c1c(Cl)cncc1Cl.O=C(O)CC(O)(CC(=O)O)C(=O)O [compound of formula (III)]
- solubility at 4 h [1, 3]: 910 µg/mL
- solubility at 24 h [1, 3]: 942 µg/mL
- solubility at 4 h [1, 4]: 2370 µg/mL
- solubility at 24 h [1, 4]: 2230 µg/mL
- solubility at 4 h [1, 5]: 2420 µg/mL
- solubility at 24 h [1, 5]: 16.8 µg/mL
- pH (4 hours) [1, 6]: 6.43
- pH (24 hours) [1, 6]: 6.33
- pH (4 hours) [1, 7]: 4.96
- pH (24 hours) [1, 7]: 4.97
- pH (4 hours) [1, 8]: 5.60
- pH (24 hours) [1, 8]: 5.47
- pH (4 hours) [1, 9]: 2.09
- pH (24 hours) [1, 9]: 2.08
- solubility at 4 h [1, 10]: 99.5 µg/mL
- solubility at 24 h [1, 10]: 184 µg/mL

SMILES: C[C@@H](Oc1ccc2[nH]nc(/C=C(\F)c3ccc(CNC4CCOCC4)nc3)c2c1)c1c(Cl)cncc1Cl.O=C(O)C[C@H](O)C(=O)O [compound of formula (IV)]
- solubility at 4 h [1, 3]: 1130 µg/mL
- solubility at 24 h [1, 3]: 824 µg/mL
- solubility at 4 h [1, 4]: 2410 µg/mL
- solubility at 24 h [1, 4]: 2280 µg/mL
- solubility at 4 h [1, 5]: 2470 µg/mL
- solubility at 24 h [1, 5]: 43.3 µg/mL
- pH (4 hours) [1, 6]: 6.26
- pH (24 hours) [1, 6]: 6.27
- pH (4 hours) [1, 7]: 4.95
- pH (24 hours) [1, 7]: 4.95
- pH (4 hours) [1, 8]: 6.93
- pH (24 hours) [1, 8]: 6.46
- pH (4 hours) [1, 9]: 2.09
- pH (24 hours) [1, 9]: 2.09
- solubility at 4 h [1, 10]: 7.4 µg/mL
- solubility at 24 h [1, 10]: 19.3 µg/mL

SMILES: C[C@@H](Oc1ccc2[nH]nc(/C=C(\F)c3ccc(CNC4CCOCC4)nc3)c2c1)c1c(Cl)cncc1Cl [crystal form G]
- Appearance ([2]; 0th day): Earth yellow
- Content (%) ([2]; 0th day): 100%
- Crystal form (XRPD) ([2]; 0th day): form G
- Total impurities (%) ([2]; 0th day): 0.11%
- Appearance [2, 11]: Earth yellow
- Content (%) [2, 11]: 102.45%
- Crystal form (XRPD) [2, 11]: form G
- Total impurities (%) [2, 11]: 0.16%
- Appearance [2, 12]: Earth yellow
- Content (%) [2, 12]: 101.07%
- Crystal form (XRPD) [2, 12]: form G
- Total impurities (%) [2, 12]: 0.17%
- Appearance [2, 13]: Earth yellow
- Content (%) [2, 13]: 98.81%
- Crystal form (XRPD) [2, 13]: form G
- Total impurities (%) [2, 13]: 0.18%
- Appearance [2, 14]: Earth yellow
- Content (%) [2, 14]: 99.97%
- Crystal form (XRPD) [2, 14]: form G
- Total impurities (%) [2, 14]: 0.11%
- Appearance [2, 15]: Earth yellow
- Content (%) [2, 15]: 101.51%
- Crystal form (XRPD) [2, 15]: form G
- Total impurities (%) [2, 15]: 0.17%
- Appearance [2, 16]: Earth yellow
- Content (%) [2, 16]: 99.86%
- Crystal form (XRPD) [2, 16]: form G
- Total impurities (%) [2, 16]: 0.18%
- Appearance [2, 17]: Earth yellow
- Content (%) [2, 17]: 100.21%
- Crystal form (XRPD) [2, 17]: form G
- Total impurities (%) [2, 17]: 0.19%
- Appearance [2, 18]: Earth yellow
- Content (%) [2, 18]: 98.38%
- Crystal form (XRPD) [2, 18]: form G
- Total impurities (%) [2, 18]: 0.15%
- Appearance [2, 19]: Earth yellow
- Content (%) [2, 19]: 100.82%
- Crystal form (XRPD) [2, 19]: form G
- Total impurities (%) [2, 19]: 0.11%
- Appearance [2, 20]: Earth yellow
- Content (%) [2, 20]: 98.79%
- Crystal form (XRPD) [2, 20]: form G
- Total impurities (%) [2, 20]: 0.11%
- Appearance [2, 21]: Earth yellow
- Content (%) [2, 21]: 102.02%
- Crystal form (XRPD) [2, 21]: form G
- Total impurities (%) [2, 21]: 0.16%
- Appearance [2, 22]: Earth yellow
- Content (%) [2, 22]: 100.14%
- Crystal form (XRPD) [2, 22]: form G
- Total impurities (%) [2, 22]: 0.16%
- Appearance [2, 23]: Earth yellow
- Content (%) [2, 23]: 102.93%
- Crystal form (XRPD) [2, 23]: form G
- Total impurities (%) [2, 23]: 0.37%
- Appearance [2, 24]: Earth yellow
- Content (%) [2, 24]: 101.69%
- Crystal form (XRPD) [2, 24]: form G
- Total impurities (%) [2, 24]: 0.11%
- thermal stability and stability under accelerated conditions ([2]; conclusion of influencing factors and accelerated tests): excellent
- stability under dark conditions ([2]; dark): good stability
- impurities generated under light irradiation conditions ([2]; light irradiation): slight impurities
